In PMC12751025, “α‑Aminoboronic Acid Moieties in Boro Dipeptides Modulate Proteasome Subunit Selectivity and Provide Access to Compounds with Potent Anticancer and Anti-Inflammatory Activity” (Journal of Medicinal Chemistry, 2025):

Columns and labels:
[1] = system: MM.1S; design: method as in previous findings; details: reference number not given; ref previous findings; read-out: IC50 for the reduction of MM.1S viability; cited from earlier work
[2] = biological target: β1i subunit of human iCP (Homo sapiens, UniProt P28065+P40306); assay: IC50 determination with subunit-specific fluorogenic substrate Ac-PAL-AMC; details: IC50 β1i, own assay
Method: (§1) The measurements of the residual activity of control compounds were carried out at final compound concentrations of 1 μM in the assay buffer (50 mM Tris-HCl, 0.5 mM ethylenediaminetetraacetic acid (EDTA), pH 7.4). Stock solutions of the compounds were prepared in DMSO. To the 35 μL of solution of the compound in the buffer, 35 μL of 0.4 nM human iCP (South Bay Bio, San Jose, CA, USA) or human cCP (Boston Biochem, Inc., Cambridge, MA, USA) was added. For assays evaluating the activity of β2c and β2i, the buffer was modified by adding the proteasomal activator PA28β (Boston Biochem, Inc., Cambridge, MA, USA) at a final concentration of 6 nM. […] The substrates used were acetyl-Nle-Pro-Nle-Asp-7-amino-4-methylcoumarin (Ac-nLPnLD-AMC, Bachem, Bubendorf, Switzerland) for β1c, acetyl-Pro-Ala-Leu-7-amino-4-methylcoumarin (Ac-PAL-AMC, Boston Biochem, Inc., Cambridge, MA, USA) for β1i, acetyl-Arg-Leu-Arg-7-amino-4-methylcoumarin (Ac-RLR-AMC, Bachem, Bubendorf, Switzerland) for β2c and β2i, acetyl-Trp-Leu-Ala-7-amino-4-methylcoumarin (Ac-WLA-AMC, Bachem, Bubendorf, Switzerland) for β5c, and acetyl-Ala-Asn-Trp-7-amino-4-methylcoumarin (Ac-ANW-AMC, Bachem, Bubendorf, Switzerland) for β5i. Progress of the reaction was measured using a BioTek Synergy HT microplate reader, monitoring fluorescence at 460 nm (excitation at 360 nm) for 60 min at 37 °C. The initial linear ranges were used to calculate the reaction velocity and determine the residual activity.
(§2) The final assay mixtures contained 0.4 nM human iCP or cCP in assay buffer (50 mM Tris-HCl, 0.5 mM EDTA, pH 7.4, addition of PA28β for β2c and β2i subunits). […] After incubation at 37 °C for 30 min, the reaction was initiated by the addition of the substrate Ac-nLPnLD-AMC for β1c, Ac-PAL-AMC for β1i, Ac-RLR-AMC for β2c and β2i, Ac-WLA-AMC for β5c, and Ac-ANW-AMC for β5i. Fluorescence was monitored at 460 nm (excitation at 360 nm) for 60 min at 37 °C. The reaction progress was recorded and the initial linear phases were used to determine the velocity. The IC50 values were calculated using GraphPad Prism software (GraphPad Software, San Diego, CA, USA), and the results represent the mean values of at least three independent determinations.

[3] = system: β5i; details: in parentheses in Table S2; SI reference list; read-out: IC50 β5i, previously published data; cited from earlier work
[4] = biological target: T1, β1c subunit of human cCP (Homo sapiens, UniProt P28072+Q99436); assay: IC50 determination with subunit-specific fluorogenic substrate Ac-nLPnLD-AMC; assay type: biochemical; details: own assay
T1 construct: purchased Boston Biochem, Inc
Method: as §1, §2

[5] = biological target: T2, β2c subunit of human cCP (Homo sapiens, UniProt P49720+Q99436); assay: IC50 determination with fluorogenic substrate Ac-RLR-AMC (PA28β added); assay type: biochemical; details: own assay
T2 construct: purchased Boston Biochem, Inc
Method: Stock solutions of the compounds were prepared in DMSO. To the 35 μL of solution of the compound in the buffer, 35 μL of 0.4 nM human iCP (South Bay Bio, San Jose, CA, USA) or human cCP (Boston Biochem, Inc., Cambridge, MA, USA) was added. For assays evaluating the activity of β2c and β2i, the buffer was modified by adding the proteasomal activator PA28β (Boston Biochem, Inc., Cambridge, MA, USA) at a final concentration of 6 nM. […] The substrates used were acetyl-Nle-Pro-Nle-Asp-7-amino-4-methylcoumarin (Ac-nLPnLD-AMC, Bachem, Bubendorf, Switzerland) for β1c, acetyl-Pro-Ala-Leu-7-amino-4-methylcoumarin (Ac-PAL-AMC, Boston Biochem, Inc., Cambridge, MA, USA) for β1i, acetyl-Arg-Leu-Arg-7-amino-4-methylcoumarin (Ac-RLR-AMC, Bachem, Bubendorf, Switzerland) for β2c and β2i, acetyl-Trp-Leu-Ala-7-amino-4-methylcoumarin (Ac-WLA-AMC, Bachem, Bubendorf, Switzerland) for β5c, and acetyl-Ala-Asn-Trp-7-amino-4-methylcoumarin (Ac-ANW-AMC, Bachem, Bubendorf, Switzerland) for β5i. Progress of the reaction was measured using a BioTek Synergy HT microplate reader, monitoring fluorescence at 460 nm (excitation at 360 nm) for 60 min at 37 °C. The initial linear ranges were used to calculate the reaction velocity and determine the residual activity.
as §2

[6] = system: β1i; details: in parentheses in Table S2; SI reference list; read-out: IC50 β1i, previously published data; cited from earlier work
[7] = system: β5c; details: in parentheses in Table S2; SI reference list; read-out: IC50 β5c, previously published data; cited from earlier work
[8] = biological target: T3, β5c subunit of human cCP (Homo sapiens, UniProt P20618+P28074); assay: IC50 determination with fluorogenic substrate Ac-WLA-AMC; assay type: biochemical; details: own assay
T3 construct: purchased Boston Biochem, Inc
Method: as §1, §2

[9] = system: β2i; details: in parentheses in Table S2; SI reference list; read-out: IC50 β2i, previously published data; cited from earlier work
[10] = Cytotoxicity MTS assay; assay type: cell-based; details: human, MM.1S multiple myeloma cells, 250 nM, 72 h (Figure S3), read-out: viable cells
Method: Cytotoxicity was determined using the MTS cell proliferation assay (CellTiter 96 AQueous One Solution Cell Proliferation Assay, Promega, Wisconsin, USA), which measures mitochondrial metabolic activity as a surrogate for cell viability. The assay was performed according to the manufacturer protocol. […] The cells were seeded in 96-well plates (15.000–30.000 cells/well). After 24 h incubation at 5% CO2 and 37 °C, the cells were treated either with DMSO (negative control) or solutions of the tested compounds in DMSO. After 24 or 72 h, MTS reagent was added. Cells were incubated for additional 2 h - 4 h, followed by the measurement of absorbance at 490 nm on the Tecan Spark microplate reader.

[11] = biological target: β2i subunit of human iCP (Homo sapiens, UniProt P40306+P49720); assay: IC50 determination with fluorogenic substrate Ac-RLR-AMC (PA28β added)
Method: as §1, §2

[12] = biological target: β5i subunit of human iCP (Homo sapiens, UniProt P20618+P28062); assay: IC50 determination with fluorogenic substrate Ac-ANW-AMC; details: IC50 β5i, own assay
Method: as §1, §2

[13] = system: β1c; details: in parentheses in Table S2; SI reference list; read-out: IC50 β1c, previously published data; cited from earlier work
[14] = system: β2c; details: in parentheses in Table S2; SI reference list; read-out: IC50 β2c, previously published data; cited from earlier work

## O=C(N[C@@H](Cc1coc2ccccc12)B(O)O)[C@@H]1C[C@H]2CC[C@@H]1O2 [M3258]
[1]
  IC50: 0.367 µM
[2]
  IC50: > 1 µM
[3]
  IC50: 0.0041 µM
[4]
  IC50: > 1 µM
[5]
  IC50: > 1 µM
[6]
  IC50: > 30 µM
[7]
  IC50: 2.52 µM
[8]
  IC50: 1.23 ± 0.09 µM
[9]
  IC50: > 30 µM
[10]
  viability at 72 h, […]: 87%
[11]
  IC50: > 1 µM
[12]
  IC50: 0.0074 ± 0.001 µM
[13]
  IC50: > 30 µM
[14]
  IC50: > 30 µM
